Results on eleven compounds are retold here after patent US20260184710A1, “CASITAS B-LINEAGE LYMPHOMA PROTOONCOGENE B (CBL-B) DEGRADING COMPOUNDS AND ASSOCIATED METHODS OF USE” (Arvinas Operations, Inc., priority 2022, published 2026).

Experiment [1] addresses T1, Cbl-b (Homo sapiens, UniProt Q13191).
T1 construct: Cbl-b-HiBit KI Jurkat Cells were purchased from Promega; host or cells: Cbl-b-HiBiT knock-in Jurkat cells
The experiment can be described thus: Cbl-b Degradation Method A (FACS, anti-Cbl-b antibody staining). To be noted: Cbl-b-HiBit KI Jurkat Cells, incubated at least 20 hours; for Dmax: Jurkat, read-out: Cbl-b Degredation Method A Dmax (%). In kind it is cell-based. The gist of the method: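 Readout is flow cytometry of fixed, permeabilized cells immunostained for Cbl-b (primary 1:200, AF488 secondary). Cells were Cbl-b-HiBit knock-in Jurkat, exposed to compound ≥20 h at 37 °C; half-maximal degradation concentration (DC50) and maximal degradation (Dmax) calculated relative to control.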

The target of experiment [2] is T1, Cbl-b. The experiment can be described thus: Cbl-b Degradation Method B (Nano-Glo HiBiT lytic detection). The class given is cell-based. The conditions noted are these: Cbl-b-HiBit KI Jurkat Cells, incubated at least 6-24 hours; for Dmax / Cbl-b Degredation Method B Dmax (%): maximum degradation observed; for Dmax: read-out: Cbl-b Degredation Method B Dmax (%). The method, boiled down:
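An 11-point, 3-fold compound dilution was applied for 6-24 hours to Jurkat cells carrying HiBiT-tagged endogenous Cbl-b. Lytic HiBiT luminescence quantified residual protein. Outputs are DC50 and Dmax relative to DMSO control.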

[3] abbreviates: half maximal degradation, read-out: Cbl-b Degredation Method A IC50.
The mark [4] stands for this setting: half maximal degradation, read-out: Cbl-b Degredation Method B IC50.

The structures appear in SMILES notation.

T1 sequence (Q13191 whole entry): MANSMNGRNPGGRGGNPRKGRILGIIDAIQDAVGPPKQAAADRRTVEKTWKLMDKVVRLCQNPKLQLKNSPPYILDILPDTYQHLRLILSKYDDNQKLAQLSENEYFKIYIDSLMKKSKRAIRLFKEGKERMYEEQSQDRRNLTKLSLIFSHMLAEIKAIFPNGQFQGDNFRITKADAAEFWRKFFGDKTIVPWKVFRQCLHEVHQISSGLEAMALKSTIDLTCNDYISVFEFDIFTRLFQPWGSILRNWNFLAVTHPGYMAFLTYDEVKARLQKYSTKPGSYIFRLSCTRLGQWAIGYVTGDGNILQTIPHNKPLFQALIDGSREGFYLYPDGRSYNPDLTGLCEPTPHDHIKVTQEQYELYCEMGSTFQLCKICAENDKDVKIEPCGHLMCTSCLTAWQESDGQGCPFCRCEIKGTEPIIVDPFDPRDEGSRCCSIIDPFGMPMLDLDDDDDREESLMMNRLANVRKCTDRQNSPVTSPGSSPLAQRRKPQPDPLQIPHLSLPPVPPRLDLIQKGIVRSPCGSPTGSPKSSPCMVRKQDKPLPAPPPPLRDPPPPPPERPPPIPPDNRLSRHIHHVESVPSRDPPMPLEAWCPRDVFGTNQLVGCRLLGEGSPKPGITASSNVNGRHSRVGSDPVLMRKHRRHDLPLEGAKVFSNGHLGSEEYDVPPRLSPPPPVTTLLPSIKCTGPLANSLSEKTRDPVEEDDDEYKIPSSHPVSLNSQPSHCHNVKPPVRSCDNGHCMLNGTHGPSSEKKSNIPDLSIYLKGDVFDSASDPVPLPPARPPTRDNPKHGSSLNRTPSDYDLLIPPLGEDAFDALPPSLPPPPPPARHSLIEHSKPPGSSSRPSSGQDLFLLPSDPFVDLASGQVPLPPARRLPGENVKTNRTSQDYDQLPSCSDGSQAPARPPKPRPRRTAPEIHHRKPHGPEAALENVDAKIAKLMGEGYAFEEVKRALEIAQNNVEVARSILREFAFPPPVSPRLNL

With `Cn1cnnc1CC1(c2cccc(-n3cc4c(C(F)(F)F)cc(CN5CCC[C@H](CN6CCN(C[C@H]7CC[C@@H](OC8CCN(c9ccc%10c(c9F)CN(C9CCC(=O)NC9=O)C%10=O)CC8)CC7)CC6)C5)cc4n3)c2)COC1` (stereo partly drawn) [Example 221, 3-[4-fluoro-1-oxo-5-(4-{[(1r,4r)-4-[(4-{[(3S)-1-{[2-(3-{3-[(4-methyl-4H-1,2,4-triazol-3-yl)methyl]oxetan-3-yl}phenyl)-4-(trifluoromethyl)-2H-indazol-6-yl]methyl}piperidin-3-yl]methyl}piperazin-1-yl)methyl]cyclohexyl]oxy}piperidin-1-yl)-2,3-dihydro-1H-isoindol-2-yl]piperidine-2,6-dione], the DC50 at Cbl-b [1] (setting [3]) and on Cbl-b [2] (setting [4]) was below 0.005 µM in each case. The Dmax on Cbl-b [1] (maximum degradation observed) and on Cbl-b [2] was above 70% throughout.
For the compound `Cn1cnnc1CC1(c2cccc(N3Cc4c(cc(N5CCC(C6CCN(c7ccc8c(c7)C(=O)N(C7CCC(=O)NC7=O)C8=O)CC6)CC5)cc4C(F)(F)F)C3=O)c2)COC1` (stereo not shown) [Example 124, 2-(2,6-dioxopiperidin-3-yl)-5-{1′-[2-(3-{3-[(4-methyl-4H-1,2,4-triazol-3-yl)methyl]oxetan-3-yl}phenyl)-3-oxo-7-(trifluoromethyl)-2,3-dihydro-1H-isoindol-5-yl]-[4,4′-bipiperidin]-1-yl}-2,3-dihydro-1H-isoindole-1,3-dione], the DC50 at Cbl-b [1] (setting [3]) and at Cbl-b [2] (setting [4]) was above 0.5 µM throughout.
For `Cn1cnnc1CC1(c2cccc(N3Cc4c(cc(N5CCN(CC6CCN(c7ccc8c(c7)C(=O)N(C7CCC(=O)NC7=O)C8=O)CC6)CC5)cc4C(F)(F)F)C3=O)c2)COC1` (stereo not shown) [Example 122, 2-(2,6-dioxopiperidin-3-yl)-5-[4-({4-[2-(3-{3-[(4-methyl-4H-1,2,4-triazol-3-yl)methyl]oxetan-3-yl}phenyl)-3-oxo-7-(trifluoromethyl)-2,3-dihydro-1H-isoindol-5-yl]piperazin-1-yl}methyl)piperidin-1-yl]-2,3-dihydro-1H-isoindole-1,3-dione], the DC50 on Cbl-b [1] (setting [3]) was 0.05 to 0.5 µM; at Cbl-b [2] (setting [4]), above 0.5 µM.
Take `C[C@@H]1c2nc(N3CCC(O[C@H]4CC[C@H](CN5CCN(Cc6cc7c(c(C(F)(F)F)c6)CN(c6cccc(C8(Cc9nncn9C)CC(C#N)C8)c6)C7=O)CC5(C)C)CC4)CC3)ccc2C(=O)N1C1CCC(=O)NC1=O` (single isomer, unassigned) [Example 311, (1r***,3r***)-3-(3-{6-[(3,3-dimethyl-4-{[(1r**,4r**)-4-({1-[(7R*)-6-(2,6-dioxopiperidin-3-yl)-7-methyl-5-oxo-5H,6H,7H-pyrrolo[3,4-b]pyridin-2-yl]piperidin-4-yl}oxy)cyclohexyl]methyl}piperazin-1-yl)methyl]-1-oxo-4-(trifluoromethyl)-2,3-dihydro-1H-isoindol-2-yl}phenyl)-3-[(4-methyl-4H-1,2,4-triazol-3-yl)methyl]cyclobutane-1-carbonitrile]: the DC50 on Cbl-b [1] (setting [3]) is 0.05 to 0.5 µM; at Cbl-b [2] (setting [4]), below 0.005 µM. Besides, on Cbl-b [1] (maximum degradation observed), the Dmax fell in the range of 35 to 70%. Further, the “Cbl-b Degredation Method B Dmax (%)” value on Cbl-b [2] is “C (C ≤ 35)”.
For `Cc1cc(N2CCC(O[C@H]3CC[C@H](CN4CCC5(CCN(c6cc7c(c(C(F)(F)F)c6)CN(c6cccc([C@]8(Cc9nncn9C)C[C@@H](C#N)C8)c6)C7=O)C5)C4)CC3)CC2)c(F)c2c1C(=O)N(C1CCC(=O)NC1=O)C2` (stereo partly shown) [Example 188, (1r,3r)-3-[(4-methyl-4H-1,2,4-triazol-3-yl)methyl]-3-{3-[1-oxo-6-(7-{[(1r,4r)-4-({1-[2-(2,6-dioxopiperidin-3-yl)-4-fluoro-7-methyl-1-oxo-2,3-dihydro-1H-isoindol-5-yl]piperidin-4-yl}oxy)cyclohexyl]methyl}-2,7-diazaspiro[4.4]nonan-2-yl)-4-(trifluoromethyl)-2,3-dihydro-1H-isoindol-2-yl]phenyl}cyclobutane-1-carbonitrile], the Dmax on Cbl-b [1] (maximum degradation observed) and at Cbl-b [2] was 35 to 70% each time. Moreover, the DC50 on Cbl-b [2] (setting [4]) is below 0.005 µM.
With `Cn1cnnc1CC1(c2cccc(N3Cc4c(cc(CN5CCC[C@H](CN6CCC7(CC6)CCN(c6ccc8c(c6)C(=O)N(C6CCC(=O)NC6=O)C8=O)CC7)C5)cc4C(F)(F)F)C3=O)c2)COC1` (stereo partly drawn) [Example 98, 2-(2,6-dioxopiperidin-3-yl)-5-(9-{[(3R)-1-{[2-(3-{3-[(4-methyl-4H-1,2,4-triazol-3-yl)methyl]oxetan-3-yl}phenyl)-3-oxo-7-(trifluoromethyl)-2,3-dihydro-1H-isoindol-5-yl]methyl}piperidin-3-yl]methyl}-3,9-diazaspiro[5.5]undecan-3-yl)-2,3-dihydro-1H-isoindole-1,3-dione], the DC50 on Cbl-b [1] (setting [3]) and on Cbl-b [2] (setting [4]) was above 0.5 µM in each case.
For the compound `CC(C)n1c(=O)n(C2CCC(=O)NC2=O)c2cccc(N3CCC(O[C@H]4CC[C@H](CN5CCN(Cc6cc7c(c(C(F)(F)F)c6)CN(c6cccc([C@]8(Cc9nncn9C)C[C@@H](C#N)C8)c6)C7=O)CC[C@H]5C)CC4)CC3)c21` (stereo partly drawn) [Example 323, (1r,3r)-3-[3-(6-{[(5R)-5-methyl-4-{[(1r,4r)-4-({1-[1-(2,6-dioxopiperidin-3-yl)-2-oxo-3-(propan-2-yl)-2,3-dihydro-1H-1,3-benzodiazol-4-yl]piperidin-4-yl}oxy)cyclohexyl]methyl}-1,4-diazepan-1-yl]methyl}-1-oxo-4-(trifluoromethyl)-2,3-dihydro-1H-isoindol-2-yl)phenyl]-3-[(4-methyl-4H-1,2,4-triazol-3-yl)methyl]cyclobutane-1-carbonitrile], the DC50 is 0.005 to 0.05 µM at Cbl-b [1] (setting [3]) and below 0.005 µM on Cbl-b [2] (setting [4]). Moreover, at Cbl-b [1] (maximum degradation observed), the Dmax lay within 35 to 70%. The “Cbl-b Degredation Method B Dmax (%)” value on Cbl-b [2] was “C (C ≤ 35)”.
For `Cn1cnnc1CC1(c2cccc(N3Cc4c(cc(CN5CCN(C[C@H]6CC[C@H](OC7CCN(c8cccc9c8CC(=O)N9C8CCC(=O)NC8=O)CC7)CC6)CC5(C)C)cc4C(F)(F)F)C3=O)c2)CC(C#N)C1` (stereo partly shown) [Example 315, (1r**,3r**)-3-(3-{6-[(2,2-dimethyl-4-{[(1r*,4r*)-4-({1-[1-(2,6-dioxopiperidin-3-yl)-2-oxo-2,3-dihydro-1H-indol-4-yl]piperidin-4-yl}oxy)cyclohexyl]methyl}piperazin-1-yl)methyl]-1-oxo-4-(trifluoromethyl)-2,3-dihydro-1H-isoindol-2-yl}phenyl)-3-[(4-methyl-4H-1,2,4-triazol-3-yl)methyl]cyclobutane-1-carbonitrile], in that order: 0.05 to 0.5 µM, below 0.005 µM, 35 to 70% and “C (C ≤ 35)”.
Consider `Cc1cc(N2CCC(C(C)(C)N3CCC4(CC3)CN(c3cc5c(c(C(F)(F)F)c3)CN(c3cccc([C@]6(Cc7nncn7C)C[C@@H](C#N)C6)c3)C5=O)C4)CC2)c(F)c2c1C(=O)N([C@@H]1CCC(=O)NC1=O)C2` [Example 278, (1r, 3r)-3-(3-{6-[7-(2-{1-[2-(2,6-dioxopiperidin-3-yl)-4-fluoro-7-methyl-1-oxo-2,3-dihydro-1H-isoindol-5-yl]piperidin-4-yl}propan-2-yl)-2,7-diazaspiro[3.5]nonan-2-yl]-1-oxo-4-(trifluoromethyl)-2,3-dihydro-1H-isoindol-2-yl}phenyl)-3-[(4-methyl-4H-1,2,4-triazol-3-yl)methyl]cyclobutane-1-carbonitrile], for which the IC50 at Cbl-b [1] (setting [3]) lay within 0.05 to 0.5 µM; on Cbl-b [2] (setting [4]), 0.005 to 0.05 µM. On Cbl-b [1] (maximum degradation observed), the “Cbl-b Degredation Method A Dmax (%)” value is “B (35 < B < 70)”. In addition, the “Cbl-b Degredation Method B Dmax (%)” value at Cbl-b [2] is listed as “C (C ≤ 35)”.
As for `CC(C)n1c(=O)n(C2CCC(=O)NC2=O)c2cccc(N3CCC(O[C@H]4CC[C@H](CN5CCCN(Cc6cc7c(c(C(F)(F)F)c6)CN(c6cccc([C@]8(Cc9nncn9C)C[C@@H](C#N)C8)c6)C7=O)CC5)CC4)CC3)c21` (stereo partly shown) [Example 289, (1r,3r)-3-[(4-methyl-4H-1,2,4-triazol-3-yl)methyl]-3-(3-{1-oxo-6-[(4-{[(1r,4r)-4-({1-[1-(2,6-dioxopiperidin-3-yl)-2-oxo-3-(propan-2-yl)-2,3-dihydro-1H-1,3-benzodiazol-4-yl]piperidin-4-yl}oxy)cyclohexyl]methyl}-1,4-diazepan-1-yl)methyl]-4-(trifluoromethyl)-2,3-dihydro-1H-isoindol-2-yl}phenyl)cyclobutane-1-carbonitrile], the DC50 at Cbl-b [1] (setting [3]) was 0.005 to 0.05 µM; at Cbl-b [2] (setting [4]) it was below 0.005 µM. Besides, the Dmax on Cbl-b [1] (maximum degradation observed) lay within 35 to 70%. Besides, the “Cbl-b Degredation Method B Dmax (%)” value at Cbl-b [2] was “C (C ≤ 35)”.
As to `CC1CN(Cc2cc3c(c(C(F)(F)F)c2)CN(c2cccc(C4(Cc5nncn5C)COC4)c2)C3=O)CCN1C[C@H]1CC[C@H](OC2CCN(c3ccc4c(c3F)CN(C3CCC(=O)NC3=O)C4=O)CC2)CC1` (stereo partly shown) [Example 196, 3-[4-fluoro-1-oxo-5-(4-{[(1r,4r)-4-[(2-methyl-4-{[2-(3-{3-[(4-methyl-4H-1,2,4-triazol-3-yl)methyl]oxetan-3-yl}phenyl)-3-oxo-7-(trifluoromethyl)-2,3-dihydro-1H-isoindol-5-yl]methyl}piperazin-1-yl)methyl]cyclohexyl]oxy}piperidin-1-yl)-2,3-dihydro-1H-isoindol-2-yl]piperidine-2,6-dione], the DC50 on Cbl-b [1] (setting [3]) and on Cbl-b [2] (setting [4]) was below 0.005 µM each time. Besides, the Dmax at Cbl-b [1] (maximum degradation observed) was above 70%; at Cbl-b [2] it was 35 to 70%.
